Source: ChEMBL document CHEMBL1133307, “Synthesis of 5-substituted analogues of huperzine A” (Bioorg Med Chem Lett, 2000)

Experiments:
[1] = target: Acetylcholinesterase (Homo sapiens) (UniProt P22303); test: Percent inhibition against acetylcholinesterase (ACHE) at a concentration of 47 uM
[2] = target: Acetylcholinesterase (Homo sapiens) (UniProt P22303); test: Percent inhibition against acetylcholinesterase (ACHE) at a concentration of 88 uM
[3] = target: Acetylcholinesterase (Homo sapiens) (UniProt P22303); test: Percent inhibition against acetylcholinesterase (ACHE) at a concentration of 35 uM

Acetylcholinesterase (Homo sapiens), sequence (P22303 whole entry): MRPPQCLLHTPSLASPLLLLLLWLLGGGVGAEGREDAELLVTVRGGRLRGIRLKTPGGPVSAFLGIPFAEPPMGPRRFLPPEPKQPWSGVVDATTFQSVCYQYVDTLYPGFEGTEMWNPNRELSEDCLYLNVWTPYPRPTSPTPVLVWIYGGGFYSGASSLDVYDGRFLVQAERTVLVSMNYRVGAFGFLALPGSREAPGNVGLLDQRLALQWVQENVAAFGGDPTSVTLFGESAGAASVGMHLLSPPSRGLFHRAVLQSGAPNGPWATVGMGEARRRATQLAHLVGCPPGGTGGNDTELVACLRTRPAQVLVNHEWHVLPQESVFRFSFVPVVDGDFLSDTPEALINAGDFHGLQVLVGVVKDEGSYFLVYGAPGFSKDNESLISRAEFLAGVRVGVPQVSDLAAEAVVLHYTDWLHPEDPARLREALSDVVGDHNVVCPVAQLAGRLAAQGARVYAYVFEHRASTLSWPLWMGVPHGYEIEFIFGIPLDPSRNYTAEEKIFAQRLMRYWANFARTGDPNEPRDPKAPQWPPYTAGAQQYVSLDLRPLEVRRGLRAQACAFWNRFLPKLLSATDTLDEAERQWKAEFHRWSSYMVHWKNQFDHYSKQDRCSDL

## C/C=C1\C2C=C(C)CC1(F)c1ccc(O)nc1C2 (stereo not drawn)
[1]
  inhibition: 50%

## C/C=C1\C2C=C(C)CC1(OC(C)=O)c1ccc(O)nc1C2 (stereo not drawn)
[2]
  inhibition: 6.36%

## C/C=C1\C2C=C(C)CC1(O)c1ccc(O)nc1C2 (stereo not drawn)
[3]
  inhibition: 50%
